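Briefly, cells in 96-well plates were exposed to five compound concentrations for 48 h, and endpoints were estimated by linear interpolation. GI50 marks 50% less growth.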 Activity calls are given as the source filed them. Rule as the data show it: active = GI50 up to about 1.1 µM and inactive = higher.

We go through 10 molecules from ChEMBL document CHEMBL1201862, “PubChem BioAssay data set” (2004).

Test in all cases: inhibition of tumour cell growth, NCI panel, 48 h
Test [1] has as its system A498.
Test [2] concerns A549.
The test system of test [3] is CAKI-1.
In test [4] the test system is CCRF-CEM.
The subject of test [5] is DU-145.
The subject of test [6] is HOP-62.
Test [7] has as its system Hs-578T.
The subject of test [8] is K562.
The test system of test [9] is KM12.
Test [10] deals with MDA-MB-231.
Test [11] deals with NCI-H23.
Test [12] relates to NCI-H460.
The test system of test [13] is NCI/ADR-RES.
Test [14] relates to OVCAR-4.
Test [15] deals with RPMI-8226.
The test system of test [16] is SK-MEL-28.
The test system of test [17] is SNB-19.
Test [18] deals with TK-10.
Test [19] deals with U-251.
Test [20] concerns NCI-H522.

Turning to `CC(=O)NC(C)(C)C1CCC(C)CC1` (stereo unspecified), the GI50 in test [1], in test [2], in test [3], in [4], in test [5] and in test [6] was > 100 µM (inactive) in each case. The GI50 in test [7] is 48.9 µM (inactive); in test [8] it was > 100 µM (inactive); in test [9] it was > 100 µM (inactive); in [10] it was > 100 µM (inactive); in test [11] it was > 100 µM (inactive); in test [12], > 100 µM (inactive). For the same molecule, the GI50 in test [13], in test [14], in test [15], in [16], in test [17] and in test [18] was > 100 µM (inactive) in each case. Further, the GI50 in test [19] is > 100 µM (inactive).
`CC(OC(=O)C(CC(=O)OC(C)(C)C)NC(=O)OC(C)(C)C)C(=O)OCc1ccccc1` (stereo unspecified): the GI50 in [2], in [3], in test [4], in test [5], in [6] and in test [7] was > 100 µM (inactive) in each case. The GI50 in test [8], in [9], in [10], in [11], in test [12] and in test [20] was > 100 µM (inactive) in each case. Moreover, the GI50 in test [13], in test [14], in test [15], in test [16], in [17] and in test [18] was > 100 µM (inactive) throughout. The GI50 in [19] is > 100 µM (inactive).
With `O=P1(C(O)c2ccccc2)N(Cc2ccccc2)[C@@H]2CCCC[C@H]2N1Cc1ccccc1` (stereo partly specified), the GI50 was 28.8 µM (inactive) in test [2]; 64.4 µM (inactive) in test [3]; 34.8 µM (inactive) in [4]; 35 µM (inactive) in test [5]; 40.8 µM (inactive) in [6]; 20 µM (inactive) in test [7]. In addition, the GI50 in test [8] was 53.5 µM (inactive); in test [9] it was 37.3 µM (inactive); in test [10], 21.3 µM (inactive); in test [11] it was 47.9 µM (inactive); in [12] it was 30.2 µM (inactive); in [20] it was 20.7 µM (inactive). Also, the GI50 in test [13] was 26.3 µM (inactive); in test [14], 12.3 µM (inactive); in test [16], > 100 µM (inactive); in [17] it was 56.2 µM (inactive); in [18], 30.3 µM (inactive); in test [19], 31.3 µM (inactive).
On to `C[C@]12CC[C@H]3[C@@H](CCC4=C[C@@H](N5CCCC5)CC[C@@]43C)[C@@H]1C/C(=C\c1ccncc1)[C@@H]2O`, for which the GI50 in test [2] was 12.3 µM (inactive); in test [3] it was 28.8 µM (inactive); in test [4] it was 0.445 µM (active); in test [5], 15.9 µM (inactive); in test [6] it was 4.68 µM (inactive); in test [7] it was 13.8 µM (inactive). The GI50 in test [8] is 3.24 µM (inactive); in test [9], 9.57 µM (inactive); in test [10], 13.9 µM (inactive); in test [11], 15.5 µM (inactive); in test [12], 11.6 µM (inactive); in test [20], 10.3 µM (inactive). Also, the GI50 in [13] is 17.6 µM (inactive); in test [14], 18 µM (inactive); in [15] it was 4.79 µM (inactive); in [16], 7.31 µM (inactive); in test [17], 14.5 µM (inactive); in test [18] it was 13.2 µM (inactive). For the same molecule, the GI50 in test [19] was 12.6 µM (inactive).
As for `CCCNC(=O)CCC(C)C1CCC2C3C(C[C@H](OC(C)=O)[C@]12C)[C@@]1(C)CCC2(C[C@H]1C[C@H]3OC(C)=O)OOC1(CC[C@]3(C)C4C[C@H](OC(C)=O)[C@]5(C)C(C(C)CCC(=O)NCCC)CCC5C4[C@H](OC(C)=O)C[C@@H]3C1)OO2` (stereo partly specified), the GI50 in test [2] is > 100 µM (inactive); in test [3], 46.5 µM (inactive); in test [4], > 100 µM (inactive); in test [5], 53.2 µM (inactive); in [6], 20.8 µM (inactive); in test [7], 19 µM (inactive). The GI50 in test [8] is > 100 µM (inactive); in [9], > 100 µM (inactive); in test [10], 11.3 µM (inactive); in test [11], > 100 µM (inactive); in [12] it was > 100 µM (inactive); in test [20], > 100 µM (inactive). Also, the GI50 in [13], in test [14], in test [15], in test [16], in test [17] and in test [18] was > 100 µM (inactive) in each case. The GI50 in test [19] was > 100 µM (inactive).
Turning to `CC(C)(C)OC(=O)NCC(c1c[nH]c2cc(Br)ccc12)c1c[nH]c2cc(Br)ccc12`, the GI50 in test [2] was 20.1 µM (inactive); in test [3] it was 26.9 µM (inactive); in test [4], 62.1 µM (inactive); in [5] it was 17.7 µM (inactive); in [6], 17.4 µM (inactive); in test [7], 19.8 µM (inactive). In addition, the GI50 in test [8] was 40.1 µM (inactive); in test [9], 18.3 µM (inactive); in test [10], 18 µM (inactive); in test [11] it was 18.2 µM (inactive); in test [12] it was 21.2 µM (inactive); in [20], 17.3 µM (inactive). Besides, the GI50 in [13] was 17.7 µM (inactive); in test [14], 16.7 µM (inactive); in test [15], 32.7 µM (inactive); in test [16] it was 29.2 µM (inactive); in [17], 21.8 µM (inactive); in test [18] it was 19.7 µM (inactive). For the same molecule, the GI50 in [19] was 17.3 µM (inactive).
For `Cc1cc(Cl)nc2nc(Cl)c(N)cc12`, the GI50 was 13.5 µM (inactive) in test [2]; 0.354 µM (active) in test [3]; 1.67 µM (inactive) in test [4]; 7.03 µM (inactive) in [5]; 6.76 µM (inactive) in test [6]; 10.4 µM (inactive) in test [7]. Also, the GI50 is 3.23 µM (inactive) in test [8]; 5.32 µM (inactive) in test [9]; 3.48 µM (inactive) in test [10]; 7.24 µM (inactive) in [11]; 2.38 µM (inactive) in test [12]; 4.53 µM (inactive) in test [20]. Further, the GI50 was 14.8 µM (inactive) in [13]; 2.64 µM (inactive) in test [14]; 2.26 µM (inactive) in test [15]; 2.56 µM (inactive) in [16]; 4.95 µM (inactive) in [17]; 6.58 µM (inactive) in test [18]. Further, the GI50 in [19] was 2.05 µM (inactive).
On to `Cc1ccc(S(=O)(=O)NC(=O)Nc2cc(Cl)c(S(N)(=O)=O)cc2S(N)(=O)=O)cc1`, for which the GI50 in [2], in [3], in [4], in test [5], in [6] and in test [7] was > 100 µM (inactive) in each case. The GI50 in test [8], in test [9], in [10], in test [11], in test [20] and in test [13] was > 100 µM (inactive) throughout. Also, the GI50 in test [14], in test [15], in test [16], in test [17], in test [18] and in [19] was > 100 µM (inactive) in each case.
Consider `C/C(=N/NC(=O)c1ccccc1Nc1ccccc1C(=O)N/N=C(\C)c1ccc(C)cc1)c1ccc(C)cc1`, for which the GI50 in [1] was > 100 µM (inactive); in test [2], 46.3 µM (inactive); in test [3] it was > 100 µM (inactive); in test [4] it was 25.2 µM (inactive); in [5], > 100 µM (inactive); in test [6], 11.4 µM (inactive). The GI50 in [7] is > 100 µM (inactive); in test [8], 57.4 µM (inactive); in test [9], 74.8 µM (inactive); in test [10], 79.1 µM (inactive); in test [11] it was > 100 µM (inactive); in test [12] it was 15.5 µM (inactive). Further, the GI50 in test [13] was > 100 µM (inactive); in [14] it was 32.1 µM (inactive); in test [15] it was > 100 µM (inactive); in test [16], > 100 µM (inactive); in test [17], > 100 µM (inactive); in [18], 18.6 µM (inactive). Further, the GI50 in test [19] was > 100 µM (inactive).
`CC(=O)OCC(OC(C)=O)C(OC(C)=O)C(/C=N\Nc1nc2ccccc2c(=O)[nH]1)=N\Nc1nc2ccccc2c(=O)[nH]1` (stereo unspecified): the GI50 is > 100 µM (inactive) in [2]; > 100 µM (inactive) in test [3]; 34.4 µM (inactive) in [4]; > 100 µM (inactive) in [5]; > 100 µM (inactive) in test [6]; > 100 µM (inactive) in test [7]. Also, the GI50 is > 100 µM (inactive) in test [8]; 4.68 µM (inactive) in test [9]; > 100 µM (inactive) in [10]; > 100 µM (inactive) in test [11]; 22.3 µM (inactive) in test [12]; > 100 µM (inactive) in test [20]. For the same molecule, the GI50 in test [13], in test [15], in [16], in test [17] and in [19] was > 100 µM (inactive) in each case.
